According to publication PMC8648852, “Pyrazoline derivatives as promising novel antischistosomal agents” (Scientific Reports, 2021):

Experiments:
S. mansoni adult worm = assay: In vitro antischistosomal assay (viability of ex vivo adult worms); format: cell-based, Schistosoma mansoni; settings: for Time until all parasites were dead: 50 μM; for Antiparasitic activity in initial screen: 50 µM, after 72 h, adult worms; for EC50: 72 h, ex vivo adult schistosomes, brackets = 95% confidence interval
Protocol: For biological screening, S. mansoni adult parasites were isolated from the mouse infection model (parasite ex vivo) and all compounds were initially screened at 50 µM. The gold-standard antiparasitic compound praziquantel was used as a positive control and DMSO at 0.5% v/v (representing the highest concentration of solvent) served as a negative control. […] For the remaining compounds tested, no EC50 values could be calculated due to lack of activity at 50 μM. […] In tandem, our findings confirm that pyrazolines have a potent antiparasitic activity. Indeed, few compounds in the literature are active at low concentrations for review see[11],[19]. According to criteria established by the World Health Organization (WHO) for antiparasitic hits, leads, and drug candidates, at the start of a screening campaign a compound should inhibit mobility of helminths in vitro at 10 μg/mL[20], commonly ranging from 30 to 40 μM. Thus, the anthelminthic activity of pyrazolines surpasses criteria established by the WHO.
(§1) Adult schistosomes (BH strain) were isolated from infected mice and cultured in RPMI medium + 10% fetal calf serum and 100 U/mL penicillin and 100 μg/mL streptomycin in a 24-well culture plate (Corning, New York, NY, USA) containing one pair of parasites per well at 37 °C and 5% CO2 (Panasonic Healthcare, Sakata, Oizumi-machi, Japan)[38],[39]. For antischistosomal assay, compounds were dissolved in DMSO (final concentration of 0.5% v/v). Each drug concentration was tested at least in triplicate, and the experiments were repeated three times. The initial concentration of the pyrazolines and praziquantel was 50 μM and 3 μM, respectively, which was serially diluted in medium with twofold dilutions to give six concentrations[40],[41]. The negative control worms were assayed in RPMI 1640 medium and RPMI 1640 with 0.5% DMSO. Parasites were monitored daily at 24, 48 and 72 h under a stereomicroscope (Leica Microsystems EZ4E, Wetzlar, Germany) and an inverted microscope (BEL Engineering INV 100, Monza, MB, Italy). Egg production was evaluated daily as previously described. Parasite viability was averaged and 50% effective concentrations (EC50) were calculated using GraphPad Prism software[24],[43].

[1] = Cytotoxicity assay (MTT), Vero cells; format: cell-based, African green monkey; settings: African green monkey, Vero cells (African green monkey kidney cells); Vero cells, 72 h, MTT; brackets = 95% confidence interval
Protocol: (§2) The selectivity index (SI) of a compound is a widely accepted parameter used to express a drug’s in vitro efficacy. Therefore, the cytotoxic effect of these six pyrazolines (16, 18, 19, 21, 22 and 23) was evaluated using a monkey cell line (Vero) and a human cell line (SH-SY5Y). Cells were incubated with each compound at a range of concentrations for determination of cytotoxic concentrations 50% (CC50). […] With the EC50 data collected for schistosomes as well as the CC50 for animal and human cells, the selectivity indices (SI) were determined for each of the pyrazolines tested (Table 1). […] A SI value ≥ 10 is in accordance with the criteria defined by the WHO for antiparasitic hits, leads, and drug candidates. […] Comparatively, the SI values achieved with pyrazolines exceeded those obtained for other relevant heterocyclic compounds with antischistosomal properties[21],[22]. Although the SI values recorded for pyrazolines were more than 10 times below those for the reference drug praziquantel, a SI value ≥ 10 fulfills and exceeds the criteria established by the WHO for potential compounds as anthelmintic agents. The cytotoxicity of compounds was tested against Vero cells (African green monkey kidney cells obtained from the American Type Culture Collection, ATCC; Manassas, VA, USA) and SH-SY5Y cells (human neuroblastoma obtained from Banco de Células do Rio de Janeiro, BCRJ, RJ, Brazil). Cells was cultured in DMEM medium supplemented with 10% fetal calf serum, penicillin (100 U/mL) and streptomycin (100 µg/mL) and 2 mM of L-glutamine at 37 °C and in a 5% CO2 humidified incubator (Panasonic). The DMEM contained 1 or 4 mg/mL glucose for Vero and SH-SY5Y cells, respectively. Cytotoxicity assay was performed as previously described[25],[26]. Briefly, cells were seeded in 96-well plates (Corning) in DMEM medium and incubated with twofold serial drug starting at 200 μM following a 24 h adhesion period at 37 °C in 5% CO2. After 72 h, MTT was added and incubation was continued for another 3 h. The plate was then read using spectrophotometer (Epoch Microplate Spectrophotometer, BioTek Instruments, Winooski, VT, USA) at 595 nm. The assay was conducted in duplicate and repeated three times. Values were expressed as percentage of the control and 50% cytotoxic concentration (CC50) values were calculated. The selectivity indices (SI) of tested compounds were calculated by dividing CC50 values obtained on mammalian cells with EC50 values determined on S. mansoni.

Vero cells = assay: Cytotoxicity assay (MTT), Vero cells; format: cell-based, African green monkey; settings: CC50 (Vero) divided by EC50 (S. mansoni)
Protocol: as §2

[2] = Cytotoxicity assay (MTT), SH-SY5Y cells; format: cell-based, human; settings: human, SH-SY5Y cells (human neuroblastoma); SH-SY5Y cells, 72 h, MTT
Protocol: as §2

SH-SY5Y cells = assay: Cytotoxicity assay (MTT), SH-SY5Y cells; format: cell-based, human; settings: CC50 (SH-SY5Y) divided by EC50 (S. mansoni)
Protocol: as §2

[3] = tested on: paired adult schistosomes (S. mansoni); assay: Egg production (fecundity) of paired adult schistosomes in vitro; format: cell-based, Schistosoma mansoni; settings: sublethal concentrations (6.25 μM for 16, 12.5 μM for 19 and 23), compared to control
Protocol: Based on antischistosomal properties of pyrazolines 16, 18, 19, 21, 22 and 23, the ability of these six compounds to affect fecundity (egg production) was subsequently measured. […] To further investigate this effect on schistosome fecundity, parasites were tested using sublethal concentrations (3.5 μM for compound 22, 6.25 μM for compound 16, and 12.5 μM for compounds 18, 19, 21, and 23).
as §1

Compound	Death of all worms within 24 h (S. mansoni adult worm; 25 μM, 24 h)	Time until all parasites were dead (S. mansoni adult worm)	Antiparasitic activity in initial screen (S. mansoni adult worm)	EC50 (S. mansoni adult worm; Schistosoma mansoni)	EC50 (S. mansoni adult worm)	CC50 at 72 h [1]	Monkey cells SI (selectivity index) (Vero cells)	CC50 at 72 h [2]	Human cells SI (selectivity index) (SH-SY5Y cells)	Reduction in the number of eggs [3]
CCCCCCCCCOc1ccc(C2CC(c3ccccc3)=NN2C(N)=O)cc1 (stereo not drawn) [Compound 16, 4,5-dihydro-5-(4-(nonyloxy)phenyl)-3-phenylpyrazole-1-carboxamide]	death of all worms	≤ 24 h	showed antiparasitic activity	< 20 µM	13.8 µM	155 µM	11.2	> 200 µM	> 14.5	30–70%
Cc1ccc(C2CC(c3ccc(F)cc3)=NN2C(N)=O)cc1 (stereo not drawn) [Compound 19, 3-(4-fluorophenyl)-4,5-dihydro-5-p-tolylpyrazole-1-carboxamide]	–	≤ 24 h	showed antiparasitic activity	< 20 µM	17.4 µM	169 µM	9.7	> 200 µM	> 11.5	30–70%
CCCCCCOc1ccc(C2CC(c3ccccc3)=NN2C(N)=S)cc1 (stereo not drawn) [Compound 23, 4,5-dihydro-5-(4-(hexyloxy)phenyl)-3-phenylpyrazole-1-carbothioamide]	–	72 h	showed antiparasitic activity	28.2 µM	–	> 200 µM	> 7.1	> 200 µM	> 7.1	30–70%
